The structures appear in SMILES notation. A value given as a limit tells only on which side of the number the result lay.

The text below walks through data of patent publication US11505536B2, “Dihydroorotate dehydrogenase inhibitors” (Janssen Biotech, Inc., priority 2019, dated 2022).

The target of one assay is human DHODH (Homo sapiens (Human), UniProt Q02127). Put plainly: DHODH Enzymatic Assay. Format: biochemical. The note with it: purified human DHODH, DCIP absorbance, end-point mode; read-out: hDHODH IC50. The procedure, abridged:
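Purified human DHODH in […] HEPES pH 7.5, 150 mM NaCl, 0.5 mM EDTA, 0.1% Triton X-100; reaction started with substrate mix of 20 mM DHO, 5 mM CoQ6, 1 mM DCIP. End-point read as DCIP reduction (absorbance ~600 nm) after brequinar quench.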

Assay [1] has as its system MOLM-13 cells (human acute myeloid leukemia cells). Put plainly: MOLM-13 Cellular Assay. Format: cell-based. The following applies: 72 hours exposure, cell viability by CellTiter-Glo. The procedure, abridged: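 MOLM-13 AML cells, seeded at 5,000/well in RPMI 1640 with 10% FBS, were treated with compounds right after seeding for 72 h at 37 °C, 5% CO2. Viability read by CellTiter-Glo luminescence.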
A general note: ATP-based viability assays read luminescence as a measure of living cells.

Chain of human DHODH (Q02127 whole entry): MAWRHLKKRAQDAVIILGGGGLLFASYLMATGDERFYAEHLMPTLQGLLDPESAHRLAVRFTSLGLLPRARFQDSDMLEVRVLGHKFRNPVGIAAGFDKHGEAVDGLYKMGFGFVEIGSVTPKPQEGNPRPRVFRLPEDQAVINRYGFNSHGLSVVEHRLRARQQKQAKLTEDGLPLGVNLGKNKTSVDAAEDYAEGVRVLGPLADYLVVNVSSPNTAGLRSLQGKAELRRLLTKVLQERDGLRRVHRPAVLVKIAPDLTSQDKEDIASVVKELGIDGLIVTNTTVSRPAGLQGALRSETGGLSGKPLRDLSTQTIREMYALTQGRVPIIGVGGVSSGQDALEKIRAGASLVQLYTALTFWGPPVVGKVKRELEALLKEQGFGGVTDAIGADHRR

As for `CCn1c(CO)nn(-c2cc3c(C(C)C)cn(-c4cc(OC)ccc4F)c(=O)c3cc2F)c1=O` [Example 63, 6-(4-Ethyl-3-(hydroxymethyl)-5-oxo-4,5-dihydro-1H-1,2,4-triazol-1-yl)-7-fluoro-2-(2-fluoro-5-methoxyphenyl)-4-isopropylisoquinolin-1(2H)-one], the IC50 worked out at 2.76 nM at human DHODH and 2 nM in assay [1] (Homo sapiens, MOLM-13, 72 h).

As to `CCn1c(CO)nn(-c2ccc3c(=O)n(-c4cccc(F)c4)cc(C(C)C)c3c2)c1=O` [Example 2, 6-(4-Ethyl-3-(hydroxymethyl)-5-oxo-4,5-dihydro-1H-1,2,4-triazol-1-yl)-2-(3-fluorophenyl)-4-isopropylisoquinolin-1(2H)-one], the IC50 on human DHODH came out at 75.9 nM; in assay [1] (Homo sapiens, MOLM-13, 72 h), 40 nM.

As for `CCn1c(CO)nn(-c2ccc3c(=O)n(-c4c(F)cccc4Cl)cc(C(C)C)c3c2)c1=O` [Example 3, 2-(2-Chloro-6-fluorophenyl)-6-(4-ethyl-3-(hydroxymethyl)-5-oxo-4,5-dihydro-1H-1,2,4-triazol-1-yl)-4-isopropylisoquinolin-1(2H)-one], the IC50 was 3.46 nM at human DHODH and 2 nM in assay [1] (Homo sapiens, MOLM-13, 72 h).

Take `CCn1c(CO)nn(-c2cc3c(C(C)C)cn([C@H]4CC[C@@H](OC)C4)c(=O)c3cc2F)c1=O` (racemic) [Example 119, Racemic 6-(4-Ethyl-3-(hydroxymethyl)-5-oxo-4,5-dihydro-1H-1,2,4-triazol-1-yl)-7-fluoro-4-isopropyl-2-((cis)-3-methoxycyclopentyl)isoquinolin-1(2H)-one]: the IC50 at human DHODH worked out at 10.1 nM; in assay [1] (Homo sapiens, MOLM-13, 72 h), 10 nM.

On to `CCn1c(CO)nn(-c2ccc3c(=O)n(-c4cccc(F)c4)nc(C(C)C)c3c2)c1=O` [Example 18, 6-(4-Ethyl-3-(hydroxymethyl)-5-oxo-4,5-dihydro-1H-1,2,4-triazol-1-yl)-2-(3-fluorophenyl)-4-isopropylphthalazin-1(2H)-one], for which the IC50 on human DHODH was found to be 80.7 nM; in assay [1] (Homo sapiens, MOLM-13, 72 h), 30 nM.

`C=C(C)c1cn(-c2c(C)n[nH]c2Cl)c(=O)c2cc(F)c(-n3nc(CO)n(CC)c3=O)cc12` [Example 60, 2-(5-Chloro-3-methyl-1H-pyrazol-4-yl)-6-(4-ethyl-3-(hydroxymethyl)-5-oxo-4,5-dihydro-1H-1,2,4-triazol-1-yl)-7-fluoro-4-(prop-1-en-2-yl)isoquinolin-1(2H)-one]: the IC50 on human DHODH is 0.286 nM; in assay [1] (Homo sapiens, MOLM-13, 72 h), 4 nM.

With `CCc1nn(-c2cccc(F)c2)c(=O)c2ccc(-n3nc(CO)n(CC)c3=O)cc12` [Example 20, 4-Ethyl-6-(4-ethyl-3-(hydroxymethyl)-5-oxo-4,5-dihydro-1H-1,2,4-triazol-1-yl)-2-(3-fluorophenyl)phthalazin-1(2H)-one], the IC50 at human DHODH was 83.5 nM; in assay [1] (Homo sapiens, MOLM-13, 72 h), 100 nM.

Take `C=C(C)c1cn(-c2ccccc2Cl)c(=O)c2cc(F)c(-n3nc(CO)n(CC)c3=O)cc12` [Example 45, 2-(2-Chlorophenyl)-6-(4-ethyl-3-(hydroxymethyl)-5-oxo-4,5-dihydro-1H-1,2,4-triazol-1-yl)-7-fluoro-4-(prop-1-en-2-yl)isoquinolin-1(2H)-one]: the IC50 on human DHODH was 1.41 nM; in assay [1] (Homo sapiens, MOLM-13, 72 h), 0.3 nM.

Turning to `CCn1c(CO)nn(-c2cc3c(C(C)C)cn(-c4ccc(F)cc4C)c(=O)c3cc2F)c1=O` [Example 64, 6-(4-Ethyl-3-(hydroxymethyl)-5-oxo-4,5-dihydro-1H-1,2,4-triazol-1-yl)-7-fluoro-2-(4-fluoro-2-methylphenyl)-4-isopropylisoquinolin-1(2H)-one], the IC50 stood at 0.459 nM at human DHODH and 0.5 nM in assay [1] (Homo sapiens, MOLM-13, 72 h).

On to `CCn1c(CO)nn(-c2cc3c(C(C)C)cn([C@@H]4CCCC[C@H]4C)c(=O)c3cc2F)c1=O` (stereo in doubt) [Example 120, 6-(4-Ethyl-3-(hydroxymethyl)-5-oxo-4,5-dihydro-1H-1,2,4-triazol-1-yl)-7-fluoro-4-isopropyl-2-((1R*,2R*)-2-methylcyclohexyl)isoquinolin-1(2H)-one], for which the IC50 on human DHODH amounted to 1.68 nM; in assay [1] (Homo sapiens, MOLM-13, 72 h), 1 nM.

Turning to `C=C(C)c1cn(-c2ccccc2C)c(=O)c2cc(F)c(-n3nc(CO)n(CC)c3=O)cc12` [Example 46, 6-(4-Ethyl-3-(hydroxymethyl)-5-oxo-4,5-dihydro-1H-1,2,4-triazol-1-yl)-7-fluoro-4-(prop-1-en-2-yl)-2-(o-tolyl)isoquinolin-1(2H)-one], the IC50 on human DHODH was 0.746 nM; in assay [1] (Homo sapiens, MOLM-13, 72 h) it was 0.3 nM.

On to `CCn1c(CO)nn(-c2cc3c(C(C)C)cn(-c4cc(F)ccc4C)c(=O)c3cc2F)c1=O` [Example 67, 6-(4-Ethyl-3-(hydroxymethyl)-5-oxo-4,5-dihydro-1H-1,2,4-triazol-1-yl)-7-fluoro-2-(5-fluoro-2-methylphenyl)-4-isopropylisoquinolin-1(2H)-one], for which the IC50 at human DHODH amounted to 0.605 nM; in assay [1] (Homo sapiens, MOLM-13, 72 h) it was 0.9 nM.

As for `CCn1c(CO)nn(-c2cc3c(C(C)C)cn(-c4c(F)cccc4Cl)c(=O)c3cc2F)c1=O` [Example 11, 2-(2-Chloro-6-fluorophenyl)-6-(4-ethyl-3-(hydroxymethyl)-5-oxo-4,5-dihydro-1H-1,2,4-triazol-1-yl)-7-fluoro-4-isopropylisoquinolin-1(2H)-one], the IC50 on human DHODH is 0.222 nM; in assay [1], 0.2 nM; in assay [1] (Homo sapiens, MOLM-13, 72 h) it was at most 0.2 nM.

On to `[2H]C([2H])([2H])c1ccccc1-n1cc(C(C)C)c2nc(-n3nc(CO)n(CC)c3=O)c(F)cc2c1=O` [Example 142, 2-(4-Ethyl-3-(hydroxymethyl)-5-oxo-4,5-dihydro-1H-1,2,4-triazol-1-yl)-3-fluoro-8-isopropyl-6-(o-D3-tolyl)-1,6-naphthyridin-5(6H)-one], for which the IC50 at human DHODH stood at 0.623 nM; in assay [1] (Homo sapiens, MOLM-13, 72 h), 0.4 nM.

In the case of `CCn1c(CO)nn(-c2cc3c(C(C)C)cn(-c4nccnc4C)c(=O)c3cc2F)c1=O` [Example 97, 6-(4-Ethyl-3-(hydroxymethyl)-5-oxo-4,5-dihydro-1H-1,2,4-triazol-1-yl)-7-fluoro-4-isopropyl-2-(3-methylpyrazin-2-yl)isoquinolin-1(2H)-one], the half-maximal inhibitory concentration (IC50) on human DHODH is over 10000 nM; in assay [1] (Homo sapiens, MOLM-13, 72 h), over 100 nM.

On to `CCn1c(CO)nn(-c2cc3c(C(C)C)cn(-c4ccccc4OC)c(=O)c3cc2F)c1=O` [Example 95, 6-(4-Ethyl-3-(hydroxymethyl)-5-oxo-4,5-dihydro-1H-1,2,4-triazol-1-yl)-7-fluoro-4-isopropyl-2-(2-methoxyphenyl)isoquinolin-1(2H)-one], for which the IC50 on human DHODH was found to be 0.772 nM; in assay [1] (Homo sapiens, MOLM-13, 72 h), 1 nM.

On to `CCn1c(CO)nn(-c2cc3c(C(C)C)cn(-c4ccnc(OC)c4C)c(=O)c3cc2F)c1=O` [Example 129, 6-(4-Ethyl-3-(hydroxymethyl)-5-oxo-4,5-dihydro-1H-1,2,4-triazol-1-yl)-7-fluoro-4-isopropyl-2-(2-methoxy-3-methylpyridin-4-yl)isoquinolin-1(2H)-one], for which the IC50 stood at 29.2 nM at human DHODH and 50 nM in assay [1] (Homo sapiens, MOLM-13, 72 h).

For `CCn1c(CO)nn(-c2nc3c([C@H](C)C(F)(F)F)cn(-c4ccccc4C)c(=O)c3cc2F)c1=O` [Example 37, (S)-2-(4-Ethyl-3-(hydroxymethyl)-5-oxo-4,5-dihydro-1H-1,2,4-triazol-1-yl)-3-fluoro-6-(o-tolyl)-8-(1,1,1-trifluoropropan-2-yl)-1,6-naphthyridin-5(6H)-one], the IC50 at human DHODH worked out at 1.88 nM; in assay [1] (Homo sapiens, MOLM-13, 72 h), 3 nM.

In the case of `CCn1c(CO)nn(-c2cc3c(C(C)C)cn([C@H]4CCCC[C@@H]4C)c(=O)c3cc2F)c1=O` (stereo in doubt) [Example 121, 6-(4-Ethyl-3-(hydroxymethyl)-5-oxo-4,5-dihydro-1H-1,2,4-triazol-1-yl)-7-fluoro-4-isopropyl-2-((1S*,2S*)-2-methylcyclohexyl)isoquinolin-1(2H)-one], the IC50 was 7.41 nM on human DHODH and 4 nM in assay [1] (Homo sapiens, MOLM-13, 72 h).

Take `CCn1c(CO)nn(-c2ccc3c(=O)n(-c4cccc(F)c4)cc(-c4ccccc4)c3c2)c1=O` [Example 4, 6-(4-Ethyl-3-(hydroxymethyl)-5-oxo-4,5-dihydro-1H-1,2,4-triazol-1-yl)-2-(3-fluorophenyl)-4-phenylisoquinolin-1(2H)-one]: the IC50 at human DHODH stood at 177 nM; in assay [1] (Homo sapiens, MOLM-13, 72 h), 100 nM.

For `CCn1c(CO)nn(-c2nc3c(C(C)C)cn(-c4ccccc4OC)c(=O)c3cc2F)c1=O` [Example 130, 2-(4-Ethyl-3-(hydroxymethyl)-5-oxo-4,5-dihydro-1H-1,2,4-triazol-1-yl)-3-fluoro-8-isopropyl-6-(2-methoxyphenyl)-1,6-naphthyridin-5(6H)-one], the IC50 at human DHODH came to 0.885 nM; in assay [1] (Homo sapiens, MOLM-13, 72 h), 0.9 nM.

In the case of `CCn1c(CO)nn(-c2cc3c(C(C)C)cn(-c4c(C)cnc(OC)c4Cl)c(=O)c3cc2F)c1=O` [Example 61, 2-(3-Chloro-2-methoxy-5-methylpyridin-4-yl)-6-(4-ethyl-3-(hydroxymethyl)-5-oxo-4,5-dihydro-1H-1,2,4-triazol-1-yl)-7-fluoro-4-isopropylisoquinolin-1(2H)-one], the IC50 came out at 0.617 nM at human DHODH and 2 nM in assay [1] (Homo sapiens, MOLM-13, 72 h).

As for `CCn1c(CO)nn(-c2nc3c(C(C)C)nn(-c4ccccc4C)c(=O)c3cc2F)c1=O` [Example 34, 2-(4-Ethyl-3-(hydroxymethyl)-5-oxo-4,5-dihydro-1H-1,2,4-triazol-1-yl)-3-fluoro-8-isopropyl-6-(o-tolyl)pyrido[2,3-d]pyridazin-5(6H)-one], the IC50 at human DHODH was 1.97 nM; in assay [1] (Homo sapiens, MOLM-13, 72 h) it was 4 nM.

Regarding `CCn1c(CO)nn(-c2cc3c([C@@H](C)C(F)(F)F)nn(-c4ccccc4C)c(=O)c3cc2F)c1=O` (single isomer, unassigned) [Example 57, (R*)-6-(4-Ethyl-3-(hydroxymethyl)-5-oxo-4,5-dihydro-1H-1,2,4-triazol-1-yl)-7-fluoro-2-(o-tolyl)-4-(1,1,1-trifluoropropan-2-yl)phthalazin-1(2H)-one], the IC50 came to 1.15 nM on human DHODH and 1 nM in assay [1] (Homo sapiens, MOLM-13, 72 h).

Broadly, the IC50 is the concentration needed to halve the response being measured.
